Measurements as given in patent US8865756B2, “Inhibitors of HCV NS5A” (Presidio Pharmaceuticals, Inc., priority 2008, dated 2014).

test system: HCV 1b_Huh-Luc/Neo-ET cell line persistently expressing a bicistronic genotype 1b replicon in Huh 7 cells; test: HCV replicon assay (luciferase readout); assay type: cell-based; settings: Hepatitis C virus, Huh-7, 72 h, read-out: Inhibition of HCV genotype 1b
In short: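 EC50, determined repeatedly, comes from a four-parameter logistic fit of luciferase signal as percent of untreated control. Readout follows 72 h compound exposure, in triplicate, of the HCV 1b_Huh-Luc/Neo-ET replicon line.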

Row | SMILES | EC50 [nM]
1 | COC(=O)N[C@H](C(=O)N[C@@H](C)c1ncc(-c2ccc(C#Cc3ccc(-c4cnc([C@@H]5CCCN5C(=O)[C@@H](NC(=O)OC)C(C)C)[nH]4)cc3)cc2)[nH]1)C(C)C [Compound 275] | < 1
2 | COC(=O)N[C@H](C(=O)N[C@H](c1ncc(-c2ccc(C#Cc3ccc(-c4cnc([C@@H]5CCCN5C(=O)[C@@H](NC(=O)OC)C(C)C)[nH]4)cc3)cc2)[nH]1)C(C)C)C(C)C [Compound 276] | 1 to 9.9
3 | COC(=O)N[C@@H](C(=O)N1CCC[C@H]1c1ncc(-c2ccc(C#Cc3ccc(-c4cnc([C@@H]5CCCN5C(=O)[C@H](NC(=O)C5(O)CC5)c5ccccc5)[nH]4)cc3)cc2)[nH]1)c1ccccc1 [Compound 277] | < 1
4 | C[C@@H](c1ncc(-c2ccc(C#Cc3ccc(-c4cnc([C@@H]5CCCN5C(=O)[C@H](NC(=O)C5CC5)c5ccccc5)[nH]4)cc3)cc2)[nH]1)N(C)C(=O)[C@H](NC(=O)C1CC1)c1ccccc1 [Compound 278] | < 1
5 | COC(=O)N[C@@H](C(=O)N[C@@H](C)c1ncc(-c2ccc(C#Cc3ccc(-c4cnc([C@@H]5CCCN5C(=O)[C@H](NC(=O)OC)c5ccccc5)[nH]4)cc3)cc2)[nH]1)c1ccccc1 [Compound 279] | < 1
6 | C[C@H](NC(=O)[C@H](NC(=O)OC(C)(C)C)c1ccccc1)c1ncc(-c2ccc(C#Cc3ccc(-c4cnc([C@@H]5CCCN5C(=O)[C@H](NC(=O)OC(C)(C)C)c5ccccc5)[nH]4)cc3)cc2)[nH]1 [Compound 280] | < 1
7 | CC(C)[C@H](NC(=O)[C@H](NC(=O)OC(C)(C)C)c1ccccc1)c1ncc(-c2ccc(C#Cc3ccc(-c4cnc([C@@H]5CCCN5C(=O)[C@H](NC(=O)OC(C)(C)C)c5ccccc5)[nH]4)cc3)cc2)[nH]1 [Compound 281] | 1 to 9.9
8 | COC(=O)N[C@@H](C(=O)N[C@H](c1ncc(-c2ccc(C#Cc3ccc(-c4cnc([C@@H]5CCCN5C(=O)[C@H](NC(=O)OC)c5ccccc5)[nH]4)cc3)cc2)[nH]1)C(C)C)c1ccccc1 [Compound 282] | < 1
9 | COC(=O)N[C@H](C(=O)N1CCC[C@H]1c1ncc(-c2ccc(C#Cc3ccc(-c4cnc([C@@H]5CCCN5C(=O)[C@@H](NC(=O)OC)[C@@H](C)O)[nH]4)cc3)cc2)[nH]1)[C@@H](C)O [Compound 283] | < 1
10 | COC(=O)N[C@H](C(=O)N1CCC[C@H]1c1ncc(-c2ccc(C#Cc3ccc(-c4cnc([C@@H]5CCCN5C(=O)[C@@H](NC(=O)OC)[C@@H](C)OC)[nH]4)cc3)cc2)[nH]1)[C@@H](C)OC [Compound 284] | < 1
11 | CC(C)[C@H](NC(=O)N1CCOCC1)C(=O)N1CCC[C@H]1c1ncc(-c2ccc(C#Cc3ccc(-c4cnc([C@@H]5CCCN5C(=O)[C@@H](NC(=O)N5CCOCC5)C(C)C)[nH]4)cc3)cc2)[nH]1 [Compound 285] | > 1000
12 | CC(C)[C@H](NC(=O)N1CCC(O)CC1)C(=O)N1CCC[C@H]1c1ncc(-c2ccc(C#Cc3ccc(-c4cnc([C@@H]5CCCN5C(=O)[C@@H](NC(=O)N5CCC(O)CC5)C(C)C)[nH]4)cc3)cc2)[nH]1 [Compound 286] | > 1000
13 | CC(C)[C@H](NC(=O)N1CCN(C)CC1)C(=O)N1CCC[C@H]1c1ncc(-c2ccc(C#Cc3ccc(-c4cnc([C@@H]5CCCN5C(=O)[C@@H](NC(=O)N5CCN(C)CC5)C(C)C)[nH]4)cc3)cc2)[nH]1 [Compound 287] | > 1000
14 | CC(C)[C@H](NC(=O)N1CCCC1)C(=O)N1CCC[C@H]1c1ncc(-c2ccc(C#Cc3ccc(-c4cnc([C@@H]5CCCN5C(=O)[C@@H](NC(=O)N5CCCC5)C(C)C)[nH]4)cc3)cc2)[nH]1 [Compound 288] | > 1000
15 | COC(=O)N[C@H](C(=O)N1CCC[C@H]1c1ncc(-c2ccc(C#Cc3ccc(-c4cnc([C@H](C)NC(=O)[C@@H](NC(=O)OC)[C@@H](C)OC)[nH]4)cc3)cc2)[nH]1)C(C)OC (stereo partly drawn) [Compound 289] | < 1
16 | COC(=O)N[C@@H](C(=O)N[C@@H](C)c1ncc(-c2ccc(C#Cc3ccc(-c4cnc([C@@H]5CCCN5C(=O)[C@H](NC(=O)OC)C(C)C)[nH]4)cc3)cc2)[nH]1)C(C)C [Compound 290] | > 1000
17 | COC(=O)N[C@H](C(=O)N[C@@H](C)c1ncc(-c2ccc(C#Cc3ccc(-c4cnc([C@@H]5CCCN5C(=O)[C@@H](NC(=O)OC)[C@@H](C)O)[nH]4)cc3)cc2)[nH]1)[C@@H](C)O [Compound 291] | < 1
18 | COC(=O)N[C@@H](C(=O)N1CCC[C@H]1c1ncc(-c2ccc(C#Cc3ccc(-c4cnc([C@@H]5CCCN5C(=O)[C@H](NC(=O)OC)C(C)C)[nH]4)cc3)cc2)[nH]1)C(C)C [Compound 292] | > 1000
19 | CC(C)[C@@H](NC(=O)N1CCCC1)C(=O)N1CCC[C@H]1c1ncc(-c2ccc(C#Cc3ccc(-c4cnc([C@@H]5CCCN5C(=O)[C@H](NC(=O)N5CCCC5)C(C)C)[nH]4)cc3)cc2)[nH]1 [Compound 293] | > 1000
20 | CC(C)(C)OC(=O)N[C@@H](C(=O)N1CCC[C@H]1c1ncc(C#Cc2ccc(C#Cc3cnc([C@@H]4CCCN4C(=O)[C@H](NC(=O)OC(C)(C)C)c4ccccc4)[nH]3)cc2)[nH]1)c1ccccc1 [Compound 300] | < 1
21 | CC(C)[C@@H](NC(=O)OC(C)(C)C)C(=O)N1CCC[C@H]1c1ncc(C#Cc2ccc(C#Cc3cnc([C@@H]4CCCN4C(=O)[C@H](NC(=O)OC(C)(C)C)C(C)C)[nH]3)cc2)[nH]1 [Compound 301] | > 1000

Row | SMILES | EC50 [nM]
22 | CC(C)[C@@H](NC(=O)C1CC1)C(=O)N1CCC[C@H]1c1ncc(C#Cc2ccc(C#Cc3cnc([C@@H]4CCCN4C(=O)[C@H](NC(=O)C4CC4)C(C)C)[nH]3)cc2)[nH]1 [Compound 302] | > 1000
23 | O=C(N[C@@H](C(=O)N1CCC[C@H]1c1ncc(C#Cc2ccc(C#Cc3cnc([C@@H]4CCCN4C(=O)[C@H](NC(=O)C4CC4)c4ccccc4)[nH]3)cc2)[nH]1)c1ccccc1)C1CC1 [Compound 303] | < 1
24 | COC(=O)N[C@@H](C(=O)N1CCC[C@H]1c1ncc(C#Cc2ccc(C#Cc3cnc([C@@H]4CCCN4C(=O)[C@H](NC(=O)OC)c4ccccc4)[nH]3)cc2)[nH]1)c1ccccc1 [Compound 304] | < 1
25 | CN(C)[C@@H](C(=O)N1CCC[C@H]1c1ncc(C#Cc2ccc(C#Cc3cnc([C@@H]4CCCN4C(=O)[C@@H](c4ccccc4)N(C)C)[nH]3)cc2)[nH]1)c1ccccc1 [Compound 305] | < 1
26 | CC(=O)N[C@@H](C(=O)N1CCC[C@H]1c1ncc(C#Cc2ccc(C#Cc3cnc([C@@H]4CCCN4C(=O)[C@H](NC(C)=O)c4ccccc4)[nH]3)cc2)[nH]1)c1ccccc1 [Compound 306] | < 1
27 | CNC(=O)N[C@@H](C(=O)N1CCC[C@H]1c1ncc(C#Cc2ccc(C#Cc3cnc([C@@H]4CCCN4C(=O)[C@H](NC(=O)NC)c4ccccc4)[nH]3)cc2)[nH]1)c1ccccc1 [Compound 307] | < 1
28 | CN(C)C(=O)N[C@@H](C(=O)N1CCC[C@H]1c1ncc(C#Cc2ccc(C#Cc3cnc([C@@H]4CCCN4C(=O)[C@H](NC(=O)N(C)C)c4ccccc4)[nH]3)cc2)[nH]1)c1ccccc1 [Compound 308] | < 1
29 | O=C(N[C@@H](C(=O)N1CCC[C@H]1c1ncc(C#Cc2ccc(C#Cc3cnc([C@@H]4CCCN4C(=O)[C@H](NC(=O)N4CCOCC4)c4ccccc4)[nH]3)cc2)[nH]1)c1ccccc1)N1CCOCC1 [Compound 309] | < 1
30 | CN1CCN(C(=O)N[C@@H](C(=O)N2CCC[C@H]2c2ncc(C#Cc3ccc(C#Cc4cnc([C@@H]5CCCN5C(=O)[C@H](NC(=O)N5CCN(C)CC5)c5ccccc5)[nH]4)cc3)[nH]2)c2ccccc2)CC1 [Compound 310] | 1 to 9.9
31 | COC(=O)N[C@@H](C(=O)N1CCC[C@H]1c1ncc(C#Cc2ccc(C#Cc3cnc([C@@H]4CCCN4C(=O)[C@@H](c4ccccc4)N4CCCC4)[nH]3)cc2)[nH]1)c1ccccc1 [Compound 311] | < 1
32 | COC(=O)N[C@@H](C(=O)N1CCC[C@H]1c1ncc(C#Cc2ccc(C#Cc3cnc([C@@H]4CCCN4C(=O)[C@@H](c4ccccc4)N4CCCCC4)[nH]3)cc2)[nH]1)c1ccccc1 [Compound 312] | < 1
33 | COC(=O)N[C@@H](C(=O)N1CCC[C@H]1c1ncc(C#Cc2ccc(C#Cc3cnc([C@@H]4CCCN4C(=O)[C@@H](c4ccccc4)N4CCOCC4)[nH]3)cc2)[nH]1)c1ccccc1 [Compound 313] | < 1
34 | COC(=O)N[C@@H](C(=O)N1CCC[C@H]1c1ncc(C#Cc2ccc(C#Cc3cnc([C@@H]4CCCN4C(=O)[C@@H](c4ccccc4)N(C)C)[nH]3)cc2)[nH]1)c1ccccc1 [Compound 314] | < 1
35 | CCN(CC)[C@@H](C(=O)N1CCC[C@H]1c1ncc(C#Cc2ccc(C#Cc3cnc([C@@H]4CCCN4C(=O)[C@H](NC(=O)OC)c4ccccc4)[nH]3)cc2)[nH]1)c1ccccc1 [Compound 315] | < 1
36 | COC(=O)N[C@@H](C(=O)N1CCC[C@H]1c1ncc(C#Cc2ccc3nc([C@@H]4CCCN4C(=O)[C@H](NC(=O)OC)c4ccccc4)[nH]c3c2)[nH]1)c1ccccc1 [Compound 700] | < 1
37 | COC(=O)N[C@@H](C(=O)N1CCC[C@H]1c1ncc(C#Cc2ccc(-c3ccc(-c4cnc([C@@H]5CCCN5C(=O)[C@H](NC(=O)OC)c5ccccc5)[nH]4)cc3)cc2)[nH]1)c1ccccc1 [Compound 750] | < 1
38 | CCN(CC)[C@@H](C(=O)N1CCC[C@H]1c1ncc(-c2ccc(-c3ccc(C#Cc4cnc([C@@H]5CCCN5C(=O)[C@H](NC(=O)OC)c5ccccc5)[nH]4)cc3)cc2)[nH]1)c1ccccc1 [Compound 751] | < 1
39 | COC(=O)N[C@@H](C(=O)N1CCC[C@H]1c1ncc(C#Cc2ccc(-c3ccc(-c4cnc([C@@H]5CCCN5C(=O)[C@@H](c5ccccc5)N5CCCCC5)[nH]4)cc3)cc2)[nH]1)c1ccccc1 [Compound 752] | < 1
40 | COC(=O)N[C@@H](C(=O)N1CCC[C@H]1c1ncc(C#Cc2ccc(-c3ccc(-c4cnc([C@@H]5CCCN5C(=O)[C@H](NC(=O)OC(C)(C)C)c5ccccc5)[nH]4)cc3)cc2)[nH]1)c1ccccc1 [Compound 753] | < 1
41 | COC(=O)N[C@@H](C(=O)N1CCC[C@H]1c1ncc(C#Cc2ccc(-c3ccc(-c4cnc([C@@H]5CCCN5C(=O)[C@H](NC(=O)C5CC5)c5ccccc5)[nH]4)cc3)cc2)[nH]1)c1ccccc1 [Compound 754] | < 1
42 | COC(=O)N[C@@H](C(=O)N1CCC[C@H]1c1ncc(C#Cc2ccc(-c3ccc(-c4cnc([C@@H]5CCCN5C(=O)[C@@H](c5ccccc5)N(C)C)[nH]4)cc3)cc2)[nH]1)c1ccccc1 [Compound 755] | < 1
